Tested on: Pimephales promelas
Test: 96 h LC50 (-log10 mol/L); higher = more toxic

Question: With CCC(C)C(C)C=O (stereo unspecified) as the compound, how does the “96 h LC50 (-log10 mol/L)” value read?
Answer: 3.85

Question: With CNC(=O)Oc1cccc2c1OC(C)(C)C2 as the compound, how does the “96 h LC50 (-log10 mol/L)” value read?
Answer: 5.4

Question: Which “96 h LC50 (-log10 mol/L)” value does the source give for O=CC=O here?
Answer: 2.43

Question: With C=CC(=C)C as the compound, how does the “96 h LC50 (-log10 mol/L)” value read?
Answer: 2.95

Question: CCN(CC)N=O was tested. Which “96 h LC50 (-log10 mol/L)” value did it give?
Answer: 2.12

Question: Which “96 h LC50 (-log10 mol/L)” value does the source give for C=C(C)C(=O)OCCOCC here?
Answer: 3.76

Question: For CCNc1nc(NC(C)C)nc(SC)n1, which “96 h LC50 (-log10 mol/L)” value is on record?
Answer: 4.38

Question: Which “96 h LC50 (-log10 mol/L)” value does the source give for COc1ccccc1C(N)=O here?
Answer: 3.1

Question: How did the “96 h LC50 (-log10 mol/L)” value turn out when CN(C)N=O was run?
Answer: 1.9

Question: With CCN(CC)c1c([N+](=O)[O-])cc(C(F)(F)F)c(N)c1[N+](=O)[O-] as the compound, how does the “96 h LC50 (-log10 mol/L)” value read?
Answer: 5.39

Question: Which “96 h LC50 (-log10 mol/L)” value does the source give for OC(C(F)(F)F)C(F)(F)F here?
Answer: 2.84

Question: Which “96 h LC50 (-log10 mol/L)” value does the source give for CC1(C)CCC(C)(C)O1 here?
Answer: 2.88

Question: For C1COCCO1, which “96 h LC50 (-log10 mol/L)” value is on record?
Answer: 0.931

Question: Which “96 h LC50 (-log10 mol/L)” value does the source give for C1CN2CCN1CC2 here?
Answer: 1.81

Question: CC(C)(O)C(Cl)(Cl)Cl was tested. Which “96 h LC50 (-log10 mol/L)” value did it give?
Answer: 3.12

Question: CCOC(=O)C(F)(F)F was tested. Which “96 h LC50 (-log10 mol/L)” value did it give?
Answer: 1.15

Question: O=C(O)c1c(Cl)ccc(Cl)c1Cl was tested. Which “96 h LC50 (-log10 mol/L)” value did it give?
Answer: 4.42

Question: Which “96 h LC50 (-log10 mol/L)” value does the source give for OCCOCCO here?
Answer: 0.15

Question: O=C(Cl)c1ccccc1 was tested. Which “96 h LC50 (-log10 mol/L)” value did it give?
Answer: 3.61

Question: For Cl[C@@H]1CCCC[C@H]1Cl, which “96 h LC50 (-log10 mol/L)” value is on record?
Answer: 3.92

Question: For CC(C)OC(C)C, which “96 h LC50 (-log10 mol/L)” value is on record?
Answer: 2.11

Question: Which “96 h LC50 (-log10 mol/L)” value does the source give for CCC1(CCC(C)C)C(=O)NC(=O)NC1=O here?
Answer: 3.42

Question: c1ccc(-c2ccc(-c3ccccc3)o2)cc1 was tested. Which “96 h LC50 (-log10 mol/L)” value did it give?
Answer: 6.64

Question: For CCOC(=O)[C@H](C)N(C(=O)c1ccccc1)c1ccc(Cl)c(Cl)c1, which “96 h LC50 (-log10 mol/L)” value is on record?
Answer: 5.68

Question: CN(C)C(=O)Nc1ccc(Cl)c(Cl)c1 was tested. Which “96 h LC50 (-log10 mol/L)” value did it give?
Answer: 4.21

Question: Which “96 h LC50 (-log10 mol/L)” value does the source give for O=C1c2ccccc2C(=O)N1SC(Cl)(Cl)Cl here?
Answer: 6.21

Question: With CCSCCSCC as the compound, how does the “96 h LC50 (-log10 mol/L)” value read?
Answer: 3.4

Question: For COCCCNCc1cc(OC)c(OC)c(OC)c1, which “96 h LC50 (-log10 mol/L)” value is on record?
Answer: 3.3

Question: For S=c1[nH]c2cc(Cl)ccc2s1, which “96 h LC50 (-log10 mol/L)” value is on record?
Answer: 4.8

Question: Which “96 h LC50 (-log10 mol/L)” value does the source give for O[C@@H]1CCCC[C@H]1c1ccccc1 here?
Answer: 3.6

Question: CC(C)(C)CC(C)(C)N was tested. Which “96 h LC50 (-log10 mol/L)” value did it give?
Answer: 3.72

Question: With C=CC(C)(O)CC/C=C(\C)CCC=C(C)C (stereo unspecified) as the compound, how does the “96 h LC50 (-log10 mol/L)” value read?
Answer: 5.19

Question: Which “96 h LC50 (-log10 mol/L)” value does the source give for CC(C)(c1cc(Br)c(O)c(Br)c1)c1cc(Br)c(O)c(Br)c1 here?
Answer: 5.83

Question: O=CN(c1ccccc1)c1ccccc1 was tested. Which “96 h LC50 (-log10 mol/L)” value did it give?
Answer: 3.81

Question: With O=S1OCC2C(CO1)C1(Cl)C(Cl)=C(Cl)C2(Cl)C1(Cl)Cl (stereo unspecified) as the compound, how does the “96 h LC50 (-log10 mol/L)” value read?
Answer: 8.48

Question: How did the “96 h LC50 (-log10 mol/L)” value turn out when CCOC(=O)/C=C\C(=O)OCC was run?
Answer: 3.98

Question: How did the “96 h LC50 (-log10 mol/L)” value turn out when ClC1C(Cl)C(Cl)C(Cl)C(Cl)C1Cl (stereo unspecified) was run?
Answer: 6.61

Question: With CN(C)C(=O)N[C@@H]1C[C@@H]2C[C@H]1[C@@H]1CCC[C@H]21 as the compound, how does the “96 h LC50 (-log10 mol/L)” value read?
Answer: 3.84

Question: With Cc1cccc([N+](=O)[O-])c1N as the compound, how does the “96 h LC50 (-log10 mol/L)” value read?
Answer: 3.8

Question: Which “96 h LC50 (-log10 mol/L)” value does the source give for Cc1ccc(Cl)c(Cl)c1 here?
Answer: 4.74

Question: For CCCCN(CC)c1c([N+](=O)[O-])cc(C(F)(F)F)cc1[N+](=O)[O-], which “96 h LC50 (-log10 mol/L)” value is on record?
Answer: 6.53

Question: How did the “96 h LC50 (-log10 mol/L)” value turn out when CCOC(=O)C(C)N(C(=O)c1ccccc1)c1ccc(Cl)c(Cl)c1 (stereo unspecified) was run?
Answer: 5.81

Question: With CC(C)CCCCCOC(=O)C(C)Oc1cc(Cl)c(Cl)cc1Cl (stereo unspecified) as the compound, how does the “96 h LC50 (-log10 mol/L)” value read?
Answer: 4.24

Question: With CC(=O)Cl as the compound, how does the “96 h LC50 (-log10 mol/L)” value read?
Answer: 3.27

Question: Which “96 h LC50 (-log10 mol/L)” value does the source give for Oc1ccc(Cl)cc1 here?
Answer: 4.46

Question: How did the “96 h LC50 (-log10 mol/L)” value turn out when CCCCOCC(C)OC(=O)C(C)Oc1cc(Cl)c(Cl)cc1Cl (stereo unspecified) was run?
Answer: 4.73

Question: With OCCOc1ccccc1 as the compound, how does the “96 h LC50 (-log10 mol/L)” value read?
Answer: 2.6

Question: CN(C)C(=O)C(c1ccccc1)c1ccccc1 was tested. Which “96 h LC50 (-log10 mol/L)” value did it give?
Answer: 3.7

Question: For CC(C)=CCC/C(C)=C/CN(C/C=C(\C)CCC=C(C)C)CCO, which “96 h LC50 (-log10 mol/L)” value is on record?
Answer: 6.41

Question: For CC(C)(C)CCN, which “96 h LC50 (-log10 mol/L)” value is on record?
Answer: 2.23

Question: Which “96 h LC50 (-log10 mol/L)” value does the source give for CCOC(=O)/C=C/C(=O)OCC here?
Answer: 4.58

Question: For c1ccc2c(c1)CCC2, which “96 h LC50 (-log10 mol/L)” value is on record?
Answer: 3.93

Question: Which “96 h LC50 (-log10 mol/L)” value does the source give for Cc1nnc(N)nc1C here?
Answer: 2.12

Question: Which “96 h LC50 (-log10 mol/L)” value does the source give for CC(C)C(C(=O)OC(C#N)c1cccc(Oc2ccccc2)c1)c1ccc(OC(F)F)cc1 (stereo unspecified) here?
Answer: 8.98

Question: How did the “96 h LC50 (-log10 mol/L)” value turn out when OC(c1ccc(Cl)cc1)(c1ccc(Cl)cc1)C(Cl)(Cl)Cl was run?
Answer: 5.86

Question: Which “96 h LC50 (-log10 mol/L)” value does the source give for CCCCCCCCCCCCN here?
Answer: 6.25

Question: How did the “96 h LC50 (-log10 mol/L)” value turn out when CC1CNCCN1 (stereo unspecified) was run?
Answer: 1.65

Question: Cc1cc(C)c([N+](=O)[O-])cc1[N+](=O)[O-] was tested. Which “96 h LC50 (-log10 mol/L)” value did it give?
Answer: 4.39

Question: How did the “96 h LC50 (-log10 mol/L)” value turn out when CCOC(=O)c1ccccc1O was run?
Answer: 3.92

Question: CC(C)=CC1C(C(=O)OCc2ccc(C)cc2C)C1(C)C (stereo unspecified) was tested. Which “96 h LC50 (-log10 mol/L)” value did it give?
Answer: 6.67

Question: With C=C(C)C(=O)OCC1CCCO1 (stereo unspecified) as the compound, how does the “96 h LC50 (-log10 mol/L)” value read?
Answer: 3.69

From EPA's aquatic toxicity sets
